From US8153614B2, “Treatment of osteoarthritis” (Glycoscience Laboratories, Inc., priority 2006, dated 2012) come the findings set out here.

The test system of the test is C57BL/6 mice, which spontaneously develop osteoarthritis. The test can be described thus: Macroscopic examination (India ink) of knee joint cartilage in the spontaneous osteoarthritis mouse model. It is filed as in vivo. To be noted: oral HA4 100 mg/10 ml/kg once daily for 2 weeks. As to the method:
In this example, HA4 was administered to C57BL/6 mice, which spontaneously develop osteoarthritis, to examine effects thereof.
20-week-old male C57BL/6 mice were purchased from Charles River Laboratories Japan, Inc., and animals which developed osteoarthritis were used. The animals were divided into the negative control (treated with physiological saline) group and the oral HA4 (100 mg/10 ml/kg) treated group.
In this example, 10 mg/ml HA4 was prepared. Specifically, HA4 was prepared by the method of Tawada et al. (Tawada A, Masa T, Oonuki Y, Watanabe A, Matsuzaki Y, Asari A. Large-scale preparation, purification, and characterization of hyaluronan oligosaccharides from 4-mers to 52-mers. Glycobiology. 2002; 12(7): 421-6.), and the concentration was adjusted with physiological saline. Furthermore, physiological saline was prepared as a control.
In this example, the test substance or physiological saline was orally given to mice which developed osteoarthritis using an oral sonde once daily for 2 weeks.
Osteoarthritis curing effects were determined macroscopically. […] For this evaluation method, refer to Chang D G, Iverson E P, Schinagl R M, Sonoda M, Amiel D, Coutts R D, Sah R L. Quantitation and localization of cartilage degeneration following the induction of osteoarthritis in the rabbit knee. […]

Consider tetrasaccharide hyaluronan [HA4], for which the “Therapeutic effects against osteoarthritis” value is recorded as “therapeutic effects against osteoarthritis were confirmed”. Besides, where the note is “saline control mean 4.8”, the “MEAN score (remaining India ink)” value is “MEAN 1.4”.
